Reference: patent US10357486B2, “Treatment of cognitive impairment with PDE4 inhibitor” (Universiteit Maastricht, priority 2013, dated 2019)
Entries after “also recorded” stand apart in the source; their conditions may differ. Marks after values point to notes of the source that are not given here.

How the values were obtained:
[1] = test system: healthy adults (18 to 35 years); test: EEG Event Related Potentials (P600) during VLT in healthy adults; format: in vivo, human; settings: single oral dose of 100 mcg
Text: Event Related Potential Analysis An electroencephalogram (EEG) cap was used to place a set of 32 EEG electrodes according to the international 10-20 system on the subjects. Event Related Potentials (ERPs) were extracted by averaging the responses within an epoch of 100 ms before and 1000 ms after stimulus onset covering P300, N400, and P600. Separate averages were made for correct and incorrect responses within a task and for different trial types. EEG measurements were done simultaneously with VLT testing. ERPs were calculated from the words that were called during immediate recall (encoding), and from the words that were recognized and from those that were not during the recognition condition at 45 minutes. The ERP components of P300, N400, and P600 were compared to examine whether the initial stimulus processing during the learning trials differs from word to word. Finally, ERPs to the old and new items during the recognition task were measured.
Tests of Within-Subjects Contrasts were regarded for immediate and delayed free recall scores and for the summed immediate recall score (i.e. immediate 1+immediate 2+immediate 3). The factor Treatment (4 levels; placebo, roflumilast 100 mcg, roflumilast 300 mcg and roflumilast 1000 mcg) was included as a within subjects factor. […] Peak and latency values of three memory related ERP's were analysed; i.e. P300, N400 and P600. […]

[2] = test system: xylazine/ketamine induced α2-adrenergic receptor-mediated anesthesia; test: xylazine/ketamine induced α2-adrenergic receptor-mediated anesthesia test (emetic potential); format: in vivo; settings: dose of 3.0 mg/kg
Text: Since emesis is a typical side-effect of phosphodiesterase 4 inhibitors the emetic potential of roflumilast and rolipram was investigated in parallel using the xylazine/ketamine induced α2-adrenergic receptor-mediated anesthesia test. The results confirmed that the two phosphodiesterase 4 inhibitors have different effects on emesis.

[3] = test system: scopolamine induced memory deficit in male Wistar rats; test: Object recognition task (ORT), scopolamine induced memory deficit; format: in vivo; settings: for d2 (discrimination index): 1 h retention, mean (SEM)
Text: The objective of this study is to evaluate the efficacious dose range of roflumilast with regard to cognitive improvement effects by using scopolamine induced memory deficit on object memory performance in male Wistar rats. Memory acquisition processes are investigated using the object recognition test (ORT).
Maintenance of Animals: Sixteen 3-4 month old male Wistar rats (Charles River, Sulzfeld, Germany) were used for the study. All animals were housed individually in standard green line Tecniplast IVC cages on stardust bedding. The animals were housed on a reversed 12/12 h light/dark cycle (lights on from 07:00 pm to 07:00 am) and had free access to food and water. The rats were housed and tested in the same room. A radio, playing softly, provided background noise in the room. All testing was performed between 09:00 am and 06:00 pm.
Preparation of Compounds: Drugs were prepared daily, except as indicated otherwise. Roflumilast (Takeda, Konstanz, Germany, MW 403.21) was dissolved in 98% methylcellulose solution (0.5% methylcellulose) and 2% Tween 80. Roflumilast in doses of 0 (vehicle), 0.0001, 0.0003, 0.001, 0.003, 0.01 and 0.03 mg/kg was administered intraperitoneally (ip, injection volume 1 ml/kg). Scopolamine (in form of scopolamine hydrobromide) was dissolved in saline (0.9% NaCl). Scopolamine hydrobromide was administered intraperitoneally at a dose of 0.1 mg/kg (ip, injection volume 1 ml/kg). Scopolamine and roflumilast were administered 30 min before T1.
Object Recognition Task in Rats: The ORT was performed as described elsewhere (Ennaceur and Delaceur, 1988, Behav Brain Res, Vol 31, pp 47-59; Akkerman et al; 2012, Behav Brain Res, Vol 232, pp 335-347). The apparatus consisted of a circular arena, 83 cm in diameter. The back half of the 40 cm high wall was made of grey PVC and the front was made of transparent PVC. Fluorescent red tubes and a light bulb provided a constant illumination of about 20 lux on the floor of the apparatus. The light intensity was equal in the different parts of the apparatus.
Two objects were placed in symmetrical positions at the mid-line between the gray and transparent halves of the arena, about ten centimeters away from wall. Four different sets of objects were available: 1) a standard 1 L brown transparent glass bottle (diameter 10 cm, height 22 cm) filled with water, 2) a metal cube (10.0×5.0×7.5 cm) with two holes (diameter 1.9 cm), 3) a cone consisting of a gray PVC base (maximal diameter 18 cm) with a collar on top made of brass (total height 16 cm), and 4) an aluminium cube with a tapering top (13.0×8.0×8.0 cm). Objects were presented to the animals in a balanced manner to avoid object or place biases. Rats were unable to displace the objects.
A test session comprised two trials, each with durations of 3 min. During the learning trial (T1) the apparatus contains two identical objects (object al and a2). Rats were always introduced into the apparatus with their nose towards the transparent wall segment (i.e. facing outwards to the front of the arena). Subsequently, rats were put back in its home cage for a 1 h interval. After the retention interval, rats were put back into the arena for the […] (T2). In T2, the two objects from T1 were replaced by one identical copy (a3) and a different novel object (b). The times spent in exploring each object during T1 and T2 were recorded manually on a personal computer.
Exploration was defined in the following manner: directing the nose to the object at a distance of no more than 2 cm and/or touching the object with the nose. Sitting on the object was not considered as exploratory behavior. In order to avoid the presence of olfactory cues, the objects were thoroughly cleaned with a 70% ethanol solution before each trial.
Prior to compound testing, the animals were handled for 5 min on 2 consecutive days and allowed to explore the ORT arena, also for 5 min. […]

For `O=C(Nc1c(Cl)cncc1Cl)c1ccc(OC(F)F)c(OCC2CC2)c1` [roflumilast, N-(3,5-dichloropyridin-4-yl)-3-cyclopropylmethoxy-4-difluoromethoxybenzamide], the “amplitude of Event-Related Potential P600 during VLT” value [1] was “strongest increase of amplitude”, the “amplitude of Event-Related Potential P600 during VLT” value ([1]; listed as Roflumilast) was “increased amplitude” and the emetic potential [2] was “tendency towards emetic potential”. The “d2 value compared to the vehicle condition (post-hoc Bonferroni t-test)” value ([3]; 0.0001 mg/kg ip + scopolamine) was “significantly lower”, the “d2 value compared to the scopolamine condition (post-hoc Bonferroni t-test)” value ([3]; 0.003 mg/kg ip + scopolamine) was “significantly higher” and the “d2 value compared to the scopolamine condition (post-hoc Bonferroni t-test)” value ([3]; 0.01 mg/kg ip + scopolamine) was “significantly higher”. For the same molecule, the “d2 value compared to the scopolamine condition (post-hoc Bonferroni t-test)” value ([3]; 0.03 mg/kg ip + scopolamine) was “significantly higher”, the “d2 (discrimination index)” value ([3]; roflumilast 0.0001 mg/kg ip + scopolamine 0.1 mg/kg ip) was 0.05 (0.05) and the “d2 (discrimination index)” value ([3]; roflumilast 0.0003 mg/kg ip + scopolamine 0.1 mg/kg ip) was 0.16 (0.06) #. The “d2 (discrimination index)” value ([3]; roflumilast 0.001 mg/kg ip + scopolamine 0.1 mg/kg ip) was 0.27 (0.06) ###, the “d2 (discrimination index)” value ([3]; roflumilast 0.003 mg/kg ip + scopolamine 0.1 mg/kg ip) was 0.43 (0.06) ### and the “d2 (discrimination index)” value ([3]; roflumilast 0.01 mg/kg ip + scopolamine 0.1 mg/kg ip) was 0.34 (0.06) ###. The “d2 (discrimination index)” value ([3]; roflumilast 0.03 mg/kg ip + scopolamine 0.1 mg/kg ip) was 0.30 (0.07) ###, the “effect on memory function in rats treated with scopolamine (ORT)” value (“effect on memory function” below) ([3]; single ip dose 0.0001 mg/kg, 0.0001 mg/kg) was “No effect” and the “effect on memory function” value ([3]; single ip dose 0.0003 mg/kg, 0.0003 mg/kg) was “intermediate memory improvement; also recorded: increasingly less efficacy”. The “effect on memory function” value ([3]; single ip dose 0.001 mg/kg, 0.001 mg/kg) was “intermediate memory improvement; also recorded: increasingly less efficacy”, the “effect on memory function” value ([3]; single ip dose 0.003 mg/kg, 0.003 mg/kg) was “fully restore memory function” and the “effect on memory function” value ([3]; single ip dose 0.01 mg/kg) was “increasingly less efficacy”. For the same molecule, the “effect on memory function” value ([3]; single ip dose 0.03 mg/kg) was “increasingly less efficacy”.
